System: 415267-285-R-J2-PDC complex spheroid viability
Assay: Anticancer human tumor 415267-285-R-J2-PDC patient-derived breast carcinoma cell line growth inhibition [POLQ]
Details: for IC50: curve of first compound; for viability, T/C: stronger effect = lower value
How it was run: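 PDC + HUVEC + MSC complex spheroids; POLQ inhibitors ± partner drugs; top conc. at/near clinical Cmax, else 10 microM (SN-38 1 microM), half-log dilutions; 37 degrees C, 5% CO2.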

[1] = second compound 0.0316 µM, first compound 0.0316 µM
[2] = second compound 0.0316 µM, first compound 0.1 µM
[3] = second compound 0.0316 µM, first compound 0.316 µM
[4] = second compound 0.0316 µM, first compound 1 µM
[5] = second compound 0.0316 µM, first compound 3.16 µM
[6] = second compound 0.0316 µM, first compound 10 µM
[7] = second compound 0.1 µM, first compound 0.0316 µM
[8] = second compound 0.1 µM, first compound 0.1 µM
[9] = second compound 0.1 µM, first compound 0.316 µM
[10] = second compound 0.1 µM, first compound 1 µM
[11] = second compound 0.1 µM, first compound 3.16 µM
[12] = second compound 0.1 µM, first compound 10 µM
[13] = second compound 0.316 µM, first compound 0.0316 µM
[14] = second compound 0.316 µM, first compound 0.1 µM
[15] = second compound 0.316 µM, first compound 0.316 µM
[16] = second compound 0.316 µM, first compound 1 µM
[17] = second compound 0.316 µM, first compound 3.16 µM
[18] = second compound 0.316 µM, first compound 10 µM
[19] = second compound 1 µM, first compound 0.0316 µM
[20] = second compound 1 µM, first compound 0.1 µM
[21] = second compound 1 µM, first compound 0.316 µM
[22] = second compound 1 µM, first compound 1 µM
[23] = second compound 1 µM, first compound 3.16 µM
[24] = second compound 1 µM, first compound 10 µM
[25] = second compound 3.16 µM, first compound 0.0316 µM
[26] = second compound 3.16 µM, first compound 0.1 µM
[27] = second compound 3.16 µM, first compound 0.316 µM
[28] = second compound 3.16 µM, first compound 1 µM
[29] = second compound 3.16 µM, first compound 3.16 µM
[30] = second compound 3.16 µM, first compound 10 µM
[31] = second compound 10 µM, first compound 0.0316 µM
[32] = second compound 10 µM, first compound 0.1 µM
[33] = second compound 10 µM, first compound 0.316 µM
[34] = second compound 10 µM, first compound 1 µM
[35] = second compound 10 µM, first compound 3.16 µM
[36] = second compound 10 µM, first compound 10 µM
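Further: spheroids exposed to compounds for one week before readout.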
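Wherever viability, T/C is given: luminescence used as stand-in measure of viable cells; 100% = DMSO vehicle control viability.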

CCc1cc2c(N3CCc4c(cc(Cn5ccnc5)cc4-c4cn(C)nc4C(F)(F)F)C3=O)cc(C)nc2c(OC)n1 + COC1C(OC(N)=O)C(O)C(Oc2ccc3c(O)c(NC(=O)c4ccc(O)c(CC=C(C)C)c4)c(=O)oc3c2C)OC1(C)C
IC50 (second compound 0.0316 µM): > 10 µM
IC50 (second compound 0.1 µM): > 10 µM
IC50 (second compound 0.316 µM): > 10 µM
IC50 (second compound 1 µM): > 10 µM
IC50 (second compound 3.16 µM): > 10 µM
IC50 (second compound 10 µM): > 10 µM
viability, T/C [1]: 75.5%
viability, T/C [2]: 81.8%
viability, T/C [3]: 84.8%
viability, T/C [4]: 76.1%
viability, T/C [5]: 76%
viability, T/C [6]: 64.4%
viability, T/C [7]: 84%
viability, T/C [8]: 81.9%
viability, T/C [9]: 80.6%
viability, T/C [10]: 75.6%
viability, T/C [11]: 72.9%
viability, T/C [12]: 66.8%
viability, T/C [13]: 93.5%
viability, T/C [14]: 79.9%
viability, T/C [15]: 74.2%
viability, T/C [16]: 69.5%
viability, T/C [17]: 83.7%
viability, T/C [18]: 65.9%
viability, T/C [19]: 94.1%
viability, T/C [20]: 79.6%
viability, T/C [21]: 68.1%
viability, T/C [22]: 73.9%
viability, T/C [23]: 73.6%
viability, T/C [24]: 55.5%
viability, T/C [25]: 92.3%
viability, T/C [26]: 98.6%
viability, T/C [27]: 73.8%
viability, T/C [28]: 85.3%
viability, T/C [29]: 80.9%
viability, T/C [30]: 73.5%
viability, T/C [31]: 90.2%
viability, T/C [32]: 85.9%
viability, T/C [33]: 88.3%
viability, T/C [34]: 82%
viability, T/C [35]: 68.5%
viability, T/C [36]: 59.7%

COc1cc2cc(C(=O)CCC(=O)O)sc2cc1OC + COC1C(OC(N)=O)C(O)C(Oc2ccc3c(O)c(NC(=O)c4ccc(O)c(CC=C(C)C)c4)c(=O)oc3c2C)OC1(C)C
IC50 (second compound 0.0316 µM): > 10 µM
IC50 (second compound 0.1 µM): > 10 µM
IC50 (second compound 0.316 µM): > 10 µM
IC50 (second compound 1 µM): > 10 µM
IC50 (second compound 3.16 µM): > 10 µM
IC50 (second compound 10 µM): > 10 µM
viability, T/C [1]: 99.7%
viability, T/C [2]: 104%
viability, T/C [3]: 101%
viability, T/C [4]: 104%
viability, T/C [5]: 103%
viability, T/C [6]: 102%
viability, T/C [7]: 102%
viability, T/C [8]: 106%
viability, T/C [9]: 97.7%
viability, T/C [10]: 107%
viability, T/C [11]: 102%
viability, T/C [12]: 109%
viability, T/C [13]: 107%
viability, T/C [14]: 97.3%
viability, T/C [15]: 101%
viability, T/C [16]: 98.6%
viability, T/C [17]: 117%
viability, T/C [18]: 105%
viability, T/C [19]: 98.7%
viability, T/C [20]: 111%
viability, T/C [21]: 109%
viability, T/C [22]: 107%
viability, T/C [23]: 104%
viability, T/C [24]: 106%
viability, T/C [25]: 96.1%
viability, T/C [26]: 105%
viability, T/C [27]: 101%
viability, T/C [28]: 113%
viability, T/C [29]: 96%
viability, T/C [30]: 98.1%
viability, T/C [31]: 101%
viability, T/C [32]: 109%
viability, T/C [33]: 102%
viability, T/C [34]: 102%
viability, T/C [35]: 96.7%
viability, T/C [36]: 104%

COc1ccc([C@@H](O)c2cc(-c3ncnc4cc(N5CCOCC5)ccc34)c(F)cc2Cl)nn1 + COC1C(OC(N)=O)C(O)C(Oc2ccc3c(O)c(NC(=O)c4ccc(O)c(CC=C(C)C)c4)c(=O)oc3c2C)OC1(C)C
IC50 (second compound 0.0316 µM): 8.63 µM
IC50 (second compound 0.1 µM): 8.03 µM
IC50 (second compound 0.316 µM): 7.09 µM
IC50 (second compound 1 µM): 9.18 µM
IC50 (second compound 3.16 µM): 8.15 µM
IC50 (second compound 10 µM): 9.75 µM
viability, T/C [1]: 104%
viability, T/C [2]: 92.5%
viability, T/C [3]: 97.9%
viability, T/C [4]: 89%
viability, T/C [5]: 78.4%
viability, T/C [6]: 45.3%
viability, T/C [7]: 95.3%
viability, T/C [8]: 104%
viability, T/C [9]: 97.9%
viability, T/C [10]: 106%
viability, T/C [11]: 99.5%
viability, T/C [12]: 38.3%
viability, T/C [13]: 101%
viability, T/C [14]: 98%
viability, T/C [15]: 101%
viability, T/C [16]: 87.7%
viability, T/C [17]: 77.9%
viability, T/C [18]: 38.3%
viability, T/C [19]: 94.3%
viability, T/C [20]: 97.2%
viability, T/C [21]: 97.1%
viability, T/C [22]: 100%
viability, T/C [23]: 76.2%
viability, T/C [24]: 48%
viability, T/C [25]: 105%
viability, T/C [26]: 108%
viability, T/C [27]: 97.1%
viability, T/C [28]: 103%
viability, T/C [29]: 79.7%
viability, T/C [30]: 43.5%
viability, T/C [31]: 102%
viability, T/C [32]: 97.8%
viability, T/C [33]: 98%
viability, T/C [34]: 96.3%
viability, T/C [35]: 90.9%
viability, T/C [36]: 48.8%

O=C(Nc1ccc(O)c(NS(=O)(=O)c2ccc(F)cc2)c1)c1ccc(-c2ccccc2)cc1 + COC1C(OC(N)=O)C(O)C(Oc2ccc3c(O)c(NC(=O)c4ccc(O)c(CC=C(C)C)c4)c(=O)oc3c2C)OC1(C)C
IC50 (second compound 0.0316 µM): 8.51 µM
IC50 (second compound 0.1 µM): 8.85 µM
IC50 (second compound 0.316 µM): 8.8 µM
IC50 (second compound 1 µM): 8.54 µM
IC50 (second compound 3.16 µM): 8.17 µM
IC50 (second compound 10 µM): > 10 µM
viability, T/C [1]: 97.7%
viability, T/C [2]: 93%
viability, T/C [3]: 94.8%
viability, T/C [4]: 95.8%
viability, T/C [5]: 93.6%
viability, T/C [6]: 42.9%
viability, T/C [7]: 95.8%
viability, T/C [8]: 101%
viability, T/C [9]: 87.6%
viability, T/C [10]: 114%
viability, T/C [11]: 94.6%
viability, T/C [12]: 44.3%
viability, T/C [13]: 110%
viability, T/C [14]: 99.2%
viability, T/C [15]: 98.9%
viability, T/C [16]: 117%
viability, T/C [17]: 94.3%
viability, T/C [18]: 44.4%
viability, T/C [19]: 90.6%
viability, T/C [20]: 108%
viability, T/C [21]: 95.7%
viability, T/C [22]: 104%
viability, T/C [23]: 93.3%
viability, T/C [24]: 42.9%
viability, T/C [25]: 103%
viability, T/C [26]: 105%
viability, T/C [27]: 119%
viability, T/C [28]: 113%
viability, T/C [29]: 94.4%
viability, T/C [30]: 40.5%
viability, T/C [31]: 118%
viability, T/C [32]: 110%
viability, T/C [33]: 103%
viability, T/C [34]: 98.5%
viability, T/C [35]: 92.5%
viability, T/C [36]: 48.5%
